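Assay format: 96-well plates, 48-hour exposure. TGI: total growth inhibition.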
Columns and labels:
Experiment in all cases: DTP human tumour cell line panel, 48 h
786-0 renal = system: 786-0 renal
SF-295 CNS = system: SF-295 CNS
IGROV1 ovarian = system: IGROV1 ovarian
SR leukemia = system: SR leukemia
TK-10 renal = system: TK-10 renal
CAKI-1 renal = system: CAKI-1 renal
SK-MEL-2 melanoma = system: SK-MEL-2 melanoma
A549 NSCLC = system: A549 NSCLC
HT29 colon = system: HT29 colon
MDA-MB-435 = system: MDA-MB-435
OVCAR-5 ovarian = system: OVCAR-5 ovarian
SW-620 colon = system: SW-620 colon
NCI-H460 lung = system: NCI-H460 lung

Structure (SMILES) | TGI (786-0 renal) [µM] | TGI (SF-295 CNS) [µM] | TGI (IGROV1 ovarian) [µM] | TGI (SR leukemia) [µM] | TGI (TK-10 renal) [µM] | TGI (CAKI-1 renal) [µM] | TGI (SK-MEL-2 melanoma) [µM] | TGI (A549 NSCLC) [µM] | TGI (HT29 colon) [µM] | TGI (MDA-MB-435) [µM] | TGI (OVCAR-5 ovarian) [µM] | TGI (SW-620 colon) [µM] | TGI (NCI-H460 lung) [µM]
COc1ccc2c(c1)-c1c(c3ccccc3n1CCN1CCCCC1)CC2 | 41.9 | 34.4 | 41.9 | 30.9 | 54.6 | > 75.2 | 16.7 | > 88.9 | 24.5 | 73.2 | > 57.2 | 81.2 | 32.4
CCOP(=O)(CCC(O)CNc1nc(N)nc(Cl)c1N=Nc1ccc(Cl)cc1)OCC (stereo not drawn) | 48.4 | 38 | 33 | 50.3 | 54.1 | 14.5 | 24.3 | 33.8 | 28.8 | 29.9 | 34.1 | 42.7 | 26.1
CC(=O)NNc1nc(C)c(C(/C=C/c2ccccc2O)=N/NC(=O)c2ccncc2)s1 | > 100 | > 100 | > 100 | > 100 | > 100 | > 100 | > 100 | > 100 | > 100 | > 100 | > 100 | > 100 | > 100
Cc1ccc(-c2cnc(NC3OC(COC(=O)c4ccccc4)C(OC(=O)c4ccccc4)C(OC(=O)c4ccccc4)C3OC(=O)c3ccccc3)s2)cc1 (stereo not drawn) | > 100 | > 100 | > 100 | > 100 | > 100 | – | > 100 | > 100 | > 100 | > 100 | > 100 | > 100 | > 100
CC(C)[Si](OCC/C=C/C1CCC(=O)C1C(O)C1CCCCC1)(C(C)C)C(C)C (stereo not drawn) | 29.3 | 31.8 | 28.5 | 14.8 | 32.7 | 28.5 | 26.9 | 28.7 | 26.2 | 34.5 | 33.4 | 31.3 | 30.7
COC(=O)c1cccc(C)c1C1CN=NC12Cc1c(ccc(C)c1C)C2=O (stereo not drawn) | > 100 | – | > 100 | > 100 | > 100 | > 100 | – | > 100 | > 100 | > 100 | > 100 | > 100 | > 100
CCOC(=O)C(NC(=O)NCc1ccc(F)cc1)C(F)(F)F (stereo not drawn) | > 100 | – | > 100 | > 100 | > 100 | – | > 100 | > 100 | > 100 | > 100 | > 100 | > 100 | –
Cc1ccc2nc(CN3CCCCC3)cc(=O)n2c1 | > 100 | > 100 | > 100 | > 100 | > 100 | > 100 | > 100 | > 100 | > 100 | > 100 | > 100 | > 100 | > 100
COC(=O)C1=C(C(=O)OC)C(C(=O)c2ccccc2)N2N=C(c3ccc(Cl)cc3)C=CC12 (stereo not drawn) | > 100 | > 100 | – | > 100 | > 100 | > 100 | > 100 | > 100 | > 100 | > 100 | > 100 | > 100 | > 100
CCCOc1ccc(/C=C/C2=[N+](CCO)CCO2)cc1 | > 100 | > 100 | > 100 | > 100 | > 100 | > 100 | > 100 | > 100 | > 100 | > 100 | > 100 | > 100 | > 100
COC(=O)C(Cc1ccccc1)C(=O)NC(CNC(=O)OCc1ccccc1)C(=O)OCc1ccccc1 (stereo not drawn) | 62.7 | > 100 | > 100 | > 69.2 | 98 | > 87.2 | 97.4 | – | > 61.2 | 50 | > 100 | > 100 | > 100
CC1=CC[C@@]2(C)[C@@H]([C@@H]1C)[C@H]1CC[C@@H]3[C@@]4(C)CC[C@H](O)C(C)(C)[C@@H]4CC[C@@]3(C)[C@]1(C)C[C@@H]2O | 42.2 | 43.4 | 42.2 | 7.34 | > 70.7 | > 83.2 | > 59 | > 100 | 46 | 70.2 | > 78.2 | 98.6 | > 67.7
